Test results published in patent publication US7825146B2, “Sulfonamide derivative having isoxazole ring” (Shionogi & Co., Ltd., priority 2003, dated 2010).

Biological target: T1, MMP-12 (Homo sapiens, UniProt P39900)
T1 construct: In regard to MMP-12, catalytic domain(^100Phe˜^263Gly) was amplified with RT-PCR; His-tag; enterokinase digestion-site; made in house
Test: Assay for inhibitory activities on MMPs (fluorogenic MOCAc peptide substrate): MMP-12
Format: biochemical
Conditions: catalytic domain 100Phe-263Gly
Method: In regard to MMP-12, catalytic domain(^100Phe˜^263Gly) was amplified with RT-PCR from Human Placenta Total RNA. This was cloned in Escherichia. coli expression vector pTrc99AHE inserted with His-tag sequence and enterokinase digestion-site, induced and expressed by IPTG (Isopropyl-β-D-thiogalactopyranoside) and expressed in a insoluble fraction. Isolation of MMP-12 from an insoluble fraction was carried out by dissolving in modifier (6M urea) by a usual method and purification with metal chelate chromatography (Ni Chelateing Sepharose). And then removing modifier (6M urea) with dialysis and refolding of the enzyme spontaneously gave activated MMP-12.
The enzymatic activity on MMPs was analyzed by the method described in “C. Graham Knight, Frances Willenbrock and Gillian Murphy: A novel coumarin-labelled peptide for sensitive continuous assays of the matrix metalloproteinases: FEBS LETT., 296, (1992), 263-266”. The substrate: MOCAc-Pro-Leu-Gly-Leu-A2Pr(DNP)-Ala-Arg-NH2 was purchased from Peptide Institute, Inc., Osaka, Japan. The measurement of the inhibitory activities (IC50) was carried out by the following four methods; • (A) Reaction with substrate, enzyme (MMPs) and inhibitor • (B) Reaction with substrate and inhibitor, without enzyme • (C) Reaction with substrate and enzyme (MMPs), without inhibitor • (D) Reaction with substrate only IC50 values were calculated by using the following formula and each fluorescence values of above four methods (A to D).
The value of inhibitory activity against MMP-2, MMP-8, MMP-9, MMP-12, and MMP-13 measured by above mentioned methods are shown in Table 36, 37, 38, 39, and 40 respectively.

T1 sequence (P39900 100-263): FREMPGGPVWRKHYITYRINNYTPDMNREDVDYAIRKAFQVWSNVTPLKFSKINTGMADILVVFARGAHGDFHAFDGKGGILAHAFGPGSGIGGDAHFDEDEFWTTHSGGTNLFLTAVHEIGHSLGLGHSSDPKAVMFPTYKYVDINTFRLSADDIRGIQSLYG

SMILES	IC50 [µM]
CC(C)C[C@H](NS(=O)(=O)c1ccc(-c2cc(-c3ccc(Cl)c(F)c3)no2)cc1)C(=O)O [Example A-81]	0.000357
CC(C)C[C@H](NS(=O)(=O)c1ccc(-c2cc(-c3ccc(Cl)c(F)c3)on2)cc1)C(=O)O [Example C-82]	0.000233
CCC(C)[C@H](NS(=O)(=O)c1ccc(-c2cc(-c3ccc(Cl)cc3)on2)cc1)C(=O)O (stereo partly shown) [Example C-107]	0.000257
Cc1ccc(-c2cc(-c3ccc(S(=O)(=O)N[C@@H](C(=O)O)C(C)C)cc3)no2)cc1 [Example C-8]	0.000559
Cc1ccc(-c2cc(-c3ccc(S(=O)(=O)N[C@@H](C)C(=O)O)cc3)no2)cc1 [Example C-2]	0.000899
CC(C)[C@H](NS(=O)(=O)c1ccc(-c2cc(-c3ccc(C(F)(F)F)cc3)no2)cc1)C(=O)O [Example A-21]	0.000608
CCC(C)[C@H](NS(=O)(=O)c1ccc(-c2cc(-c3ccc(F)cc3)on2)cc1)C(=O)O (stereo partly shown) [Example C-106]	0.000781
CCC(C)[C@H](NS(=O)(=O)c1ccc(-c2cc(-c3ccc(Br)cc3)on2)cc1)C(=O)O (stereo partly shown) [Example C-103]	0.000177
Cc1ccc(-c2cc(-c3ccc(S(=O)(=O)N[C@@H](CC(C)C)C(=O)O)cc3)no2)cc1 [Example C-54]	0.000343
CC(C)C[C@H](NS(=O)(=O)c1ccc(-c2cc(-c3ccc(Cl)cc3)no2)cc1)C(=O)O [Example A-65]	0.000492
CCc1ccc(-c2cc(-c3ccc(S(=O)(=O)N[C@@H](CC(C)C)C(=O)O)cc3)no2)cc1 [Example C-56]	0.000289
CC(C)C[C@H](NS(=O)(=O)c1ccc(-c2cc(-c3ccc(OC(F)(F)F)cc3)on2)cc1)C(=O)O [Example C-71]	0.000203
Cc1ccc(-c2cc(-c3ccc(S(=O)(=O)N[C@H](C(=O)O)C(C)C)cc3)no2)cc1 [Example C-9]	0.000409
Cc1ccc(-c2cc(-c3ccc(S(=O)(=O)N[C@@H](CC(C)C)C(=O)O)cc3)no2)cc1F [Example C-84]	0.000245
O=C(O)C[C@@H](NS(=O)(=O)c1ccc(-c2cc(-c3ccc(Cl)c(F)c3)on2)cc1)C(=O)O [Example C-117]	0.000967
CCCc1ccc(-c2cc(-c3ccc(S(=O)(=O)N[C@@H](CC(C)C)C(=O)O)cc3)no2)cc1 [Example C-58]	0.000216
CC(C)[C@@H](NS(=O)(=O)c1ccc(-c2cc(-c3ccc(Cl)c(Cl)c3)on2)cc1)C(=O)O [Example C-40]	0.000575
Cc1ccc(-c2cc(-c3ccc(S(=O)(=O)N[C@@H](CC(C)C)C(=O)O)cc3)on2)cc1 [Example A-61]	0.00081
CC(C)[C@@H](NS(=O)(=O)c1ccc(-c2cc(-c3ccc(Br)cc3)no2)cc1)C(=O)O [Example A-24]	0.000806
CC(C)[C@@H](NS(=O)(=O)c1ccc(-c2cc(-c3ccc(Cl)c(F)c3)no2)cc1)C(=O)O [Example A-40]	0.000861
CCC(C)[C@H](NS(=O)(=O)c1ccc(-c2cc(-c3ccc(C)c(F)c3)on2)cc1)C(=O)O (stereo partly shown) [Example C-105]	0.000174
Cc1ccc(-c2cc(-c3ccc(S(=O)(=O)N[C@@H](C(=O)O)C(C)(C)C)cc3)no2)cc1 [Example C-109]	0.000951
CC(C)C[C@H](NS(=O)(=O)c1ccc(-c2cc(-c3ccc(F)c(F)c3)no2)cc1)C(=O)O [Example A-84]	0.00069
CC(C)[C@@H](NS(=O)(=O)c1ccc(-c2cc(-c3ccc(F)c(F)c3)on2)cc1)C(=O)O [Example C-49]	0.000834
CCc1ccc(-c2cc(-c3ccc(S(=O)(=O)N[C@H](Cc4ccccc4)C(=O)O)cc3)no2)cc1 [Example C-123]	0.00076
CC(C)[C@H](NS(=O)(=O)c1ccc(-c2cc(-c3ccc(Cl)cc3)on2)cc1)C(=O)O [Example C-21]	0.000336

SMILES	IC50 [µM]
COc1ccc(-c2cc(-c3ccc(S(=O)(=O)N[C@@H](CC(C)C)C(=O)O)cc3)no2)cc1 [Example C-64]	0.000432
CC(C)[C@@H](NS(=O)(=O)c1ccc(-c2cc(-c3ccc(C(F)(F)F)cc3)no2)cc1)C(=O)O [Example A-20]	0.000723
CC(C)[C@H](NS(=O)(=O)c1ccc(-c2cc(-c3ccc(Cl)cc3)no2)cc1)C(=O)O [Example A-23]	0.00086
CC(C)C[C@H](NS(=O)(=O)c1ccc(-c2cc(-c3ccc(Br)cc3)on2)cc1)C(=O)O [Example C-66]	0.000218
COc1ccc(-c2cc(-c3ccc(S(=O)(=O)N[C@@H](C(=O)O)C(C)C)cc3)on2)cc1F [Example A-38]	0.000908
CCc1ccc(-c2cc(-c3ccc(S(=O)(=O)N[C@@H](CC(C)C)C(=O)O)cc3)no2)s1 [Example C-77]	0.000676
CC(C)[C@H](NS(=O)(=O)c1ccc(-c2cc(-c3ccc(C(F)(F)F)cc3)on2)cc1)C(=O)O [Example C-28]	0.000209
C[C@H](NS(=O)(=O)c1ccc(-c2cc(-c3ccc(OC(F)(F)F)cc3)no2)cc1)C(=O)O [Example A-6]	0.000889
CC(C)[C@H](NS(=O)(=O)c1ccc(-c2cc(-c3ccc(Cl)c(F)c3)no2)cc1)C(=O)O [Example A-41]	0.00047
CCC(C)[C@H](NS(=O)(=O)c1ccc(-c2cc(-c3ccc(Cl)c(F)c3)no2)cc1)C(=O)O (stereo partly shown) [Example A-104]	0.000379
CCC(C)[C@H](NS(=O)(=O)c1ccc(-c2cc(-c3ccc(C)cc3)on2)cc1)C(=O)O (stereo partly shown) [Example C-94]	0.000256
Cc1ccc(-c2cc(-c3ccc(S(=O)(=O)N[C@@H](C(=O)O)C(C)C)cc3)no2)cc1F [Example C-38]	0.000245
CCc1ccc(-c2cc(-c3ccc(S(=O)(=O)N[C@@H](C)C(=O)O)cc3)no2)cc1 [Example C-3]	0.000547
COc1ccc(-c2cc(-c3ccc(S(=O)(=O)N[C@H](C(=O)O)C(C)C)cc3)on2)cc1F [Example A-39]	0.000708
CCC(C)[C@H](NS(=O)(=O)c1ccc(-c2cc(-c3ccc(C(F)(F)F)cc3)no2)cc1)C(=O)O (stereo partly shown) [Example A-102]	0.000592
CCC(C)[C@H](NS(=O)(=O)c1ccc(-c2cc(-c3ccc(F)c(F)c3)on2)cc1)C(=O)O (stereo partly shown) [Example C-108]	0.000525
COc1ccc(-c2cc(-c3ccc(S(=O)(=O)N[C@H](CC(=O)O)C(=O)O)cc3)no2)cc1F [Example C-118]	0.000904
CC(C)C[C@H](NS(=O)(=O)c1ccc(-c2cc(-c3ccc(Cl)cc3)on2)cc1)C(=O)O [Example C-68]	0.000295
CC(C)[C@H](NS(=O)(=O)c1ccc(-c2cc(-c3ccc(Br)cc3)on2)cc1)C(=O)O [Example C-23]	0.000205
CC(C)C[C@H](NS(=O)(=O)c1ccc(-c2cc(-c3ccc(C(F)(F)F)cc3)on2)cc1)C(=O)O [Example C-73]	0.000251
Cc1ccc(-c2cc(-c3ccc(S(=O)(=O)N[C@H](Cc4ccccc4)C(=O)O)cc3)no2)cc1 [Example C-122]	0.000877
CC(C)[C@H](NS(=O)(=O)c1ccc(-c2cc(-c3ccc(Br)cc3)no2)cc1)C(=O)O [Example A-25]	0.000518
CC(C)C[C@H](NS(=O)(=O)c1ccc(-c2cc(-c3ccc(C(F)(F)F)cc3)no2)cc1)C(=O)O [Example A-63]	0.000584
CC(C)C[C@H](NS(=O)(=O)c1ccc(-c2cc(-c3ccc(Br)cc3)no2)cc1)C(=O)O [Example A-66]	0.00043
Cc1ccc(-c2cc(-c3ccc(S(=O)(=O)N[C@H](C(=O)O)C(C)C)cc3)no2)cc1F [Example C-39]	0.000238
CC(C)[C@H](NS(=O)(=O)c1ccc(-c2cc(-c3ccc(F)c(F)c3)on2)cc1)C(=O)O [Example C-50]	0.000754
